Reference: ChEMBL document CHEMBL1153977, “Fluorinated non-imidazole histamine H3 receptor antagonists” (Bioorg Med Chem Lett, 2009)

Experiments:
[1] = molecular target: Histamine H3 receptor (Homo sapiens, UniProt Q9Y5N1); test: Displacement of [125I]iodoproxyfan from human histamine H3 receptor expressed in […] cells; format: cell-based, HEK293
[2] = system: Mus musculus; test: In vivo histamine H3 receptor potency in po dosed Swiss mouse assessed as N'-methylhistamine level; format: functional

Histamine H3 receptor, sequence (Q9Y5N1 whole entry): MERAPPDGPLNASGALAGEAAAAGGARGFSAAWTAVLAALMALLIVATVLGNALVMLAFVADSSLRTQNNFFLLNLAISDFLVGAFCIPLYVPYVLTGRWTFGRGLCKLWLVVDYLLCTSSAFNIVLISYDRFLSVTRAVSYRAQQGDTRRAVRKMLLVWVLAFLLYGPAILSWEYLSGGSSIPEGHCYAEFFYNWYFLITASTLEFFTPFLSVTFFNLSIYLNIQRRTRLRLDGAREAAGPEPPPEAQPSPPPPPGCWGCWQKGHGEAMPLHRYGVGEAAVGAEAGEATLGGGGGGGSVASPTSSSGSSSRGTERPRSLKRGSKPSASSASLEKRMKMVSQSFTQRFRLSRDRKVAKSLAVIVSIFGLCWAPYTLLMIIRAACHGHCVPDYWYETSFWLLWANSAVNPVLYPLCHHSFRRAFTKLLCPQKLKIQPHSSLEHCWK

Structure (SMILES)	Ki [1]	ED50 [2]
c1cc(CN2CCCCC2)ccc1COc1ccc(CN2CCCCC2)cc1		9.6 mg/kg
F[C@@H]1CCN(Cc2ccc(OCCCN3CCCC3)cc2)C1	0.31 nM	
FC1CCN(CCCOc2ccc(CN3CCCC3)cc2)CC1	0.99 nM	
FC1(F)CCN(Cc2ccc(OCCCN3CCCCC3)cc2)CC1	0.24 nM	0.4 mg/kg
ClC1CCN(Cc2ccc(OCCCN3CCCCC3)cc2)CC1	0.068 nM	
CS(=O)(=O)OC1CCN(Cc2ccc(OCCCN3CCCCC3)cc2)CC1	0.84 nM	
BrC1CCN(Cc2ccc(OCCCN3CCCCC3)cc2)CC1	0.2 nM	
FC1CCN(Cc2ccc(OCCCN3CCCCC3)cc2)CC1	0.094 nM	7.4 mg/kg
FC1CCN(Cc2ccc(OCCCN3CCCC3)cc2)CC1	0.26 nM	12 mg/kg
c1cc(OCCCN2CCCCC2)ccc1CN1CCCCC1 [JNJ-5207852]		0.12 mg/kg
Clc1ccc(CCCOCCCN2CCCCC2)cc1 [PITOLISANT]		1.5 mg/kg

Continued, in another order:

Ki [1]	Structure (SMILES)	ED50 [2]
11 nM	N#Cc1ccc(OCCCN2CCCCC2)cc1	0.2 mg/kg
43 nM	FCCc1ccc(OCCCN2CCCCC2)cc1	
17.3 nM	FCc1ccc(OCCCN2CCCCC2)cc1	
0.28 nM	F[C@@H]1CCN(Cc2ccc(OCCCN3CCCCC3)cc2)C1	
0.28 nM	F[C@H]1CCN(Cc2ccc(OCCCN3CCCCC3)cc2)C1	3.9 mg/kg
> 1000 nM	N#Cc1ccc(OCCCN2CCC(F)(F)CC2)cc1	
